Experiments:
FGFR4 = FGFR4 (Homo sapiens, UniProt P22455); assay: In vitro biochemical kinase analysis of FGFR4 (HTRF KinEASE-TK); settings: HTRF kinase assay
Experimental: In Vitro Biochemical Kinase Analysis of FGFR4
FGFR4 protein kinase detection kit was purchased from Cisbio (HTRF KinEASE-TK kit). Prepare 1× kinase reaction buffer. Transfer 10 nL of a diluted compound to each well of a reaction plate (784075, Greiner) with an Echo 550, and seal the plate with sealing film. The reaction plate was centrifuged at 1000 g for 1 minute. Prepare 2×FGFR4 using 1× kinase reaction buffer, add 5 μL of kinase to each well of the reaction plate, seal the plate, centrifuge at 1000 g for 30 seconds, and incubate it at room temperature for 10 minutes. Prepare a mixture of 2×TK-substrate-biotin and ATP using 1× kinase reaction buffer, add 5 μL of TK-substrate-biotin/ATP mixture to the reaction plate, seal the plate with sealing film, centrifuge at 1000 g for 30 seconds, and react at room temperature for 40 minutes. Prepare 2×Sa-XL 665 and TK-antibody-Cryptate mixture using HTRF detection buffer, add 10 μL Sa-XL 665 and TK-antibody-Cryptate mixture to each well, centrifuge at 1000 g for 30 seconds, and react at room temperature for 1 hour. Envision 2104 read fluorescence signals at 615 nm (Cryptate) and at 665 nm (XL665). IC50 of the compound was calculated using the GraphPad nonlinear fitting formula.

Hep 3B hepatoma cells = assay: In vitro cell proliferation assay (CellTiter-Glo, CTG), Hep 3B; assay type: cell-based, human; settings: Hep 3B cells
Experimental: (§1) In Vitro Cell Proliferation Assay of FGFR4 (CellTiter-Glo Luminescent Cell Viability Assay, CTG Assay)
(§2) Hep 3B hepatoma cells were purchased from Cell Resource Center of Peking Union College, and HuH-7 hepatoma cells were purchased from Shanghai Biological Technology Co., Ltd. enzyme research. The cells were prepared at a concentration of 3×10^4/mL, which was then added with 100 μL to each well of a 96-well transparent flat-bottom black-walled plate to make 3000 cells per well. Incubate overnight at 37° C. in 5% CO2 incubator. Dilute a compound and add it to the wells having the cells, then add cell culture medium to 200 μL per well. Put in CO2 incubator for incubation. After 96 hours, 100 μL of culture medium was removed from each well, 100 μL of CTG was added, and the 96-well plate was placed on a shaker for 10 minutes, and placed in the shade at room temperature for 45 minutes. Data was read out by SoftMax Pro i3X Microplate Reader of MD, analyzed by the software GraphPad Prism 5.0, and S-shaped dose-response curve was drawn, then the EC50 values were calculated.

HuH-7 hepatoma cells = assay: In vitro cell proliferation assay (CellTiter-Glo, CTG), HuH-7; assay type: cell-based; settings: HuH-7 cells
Experimental: as §1, §2

FGFR4, sequence (P22455 22-802): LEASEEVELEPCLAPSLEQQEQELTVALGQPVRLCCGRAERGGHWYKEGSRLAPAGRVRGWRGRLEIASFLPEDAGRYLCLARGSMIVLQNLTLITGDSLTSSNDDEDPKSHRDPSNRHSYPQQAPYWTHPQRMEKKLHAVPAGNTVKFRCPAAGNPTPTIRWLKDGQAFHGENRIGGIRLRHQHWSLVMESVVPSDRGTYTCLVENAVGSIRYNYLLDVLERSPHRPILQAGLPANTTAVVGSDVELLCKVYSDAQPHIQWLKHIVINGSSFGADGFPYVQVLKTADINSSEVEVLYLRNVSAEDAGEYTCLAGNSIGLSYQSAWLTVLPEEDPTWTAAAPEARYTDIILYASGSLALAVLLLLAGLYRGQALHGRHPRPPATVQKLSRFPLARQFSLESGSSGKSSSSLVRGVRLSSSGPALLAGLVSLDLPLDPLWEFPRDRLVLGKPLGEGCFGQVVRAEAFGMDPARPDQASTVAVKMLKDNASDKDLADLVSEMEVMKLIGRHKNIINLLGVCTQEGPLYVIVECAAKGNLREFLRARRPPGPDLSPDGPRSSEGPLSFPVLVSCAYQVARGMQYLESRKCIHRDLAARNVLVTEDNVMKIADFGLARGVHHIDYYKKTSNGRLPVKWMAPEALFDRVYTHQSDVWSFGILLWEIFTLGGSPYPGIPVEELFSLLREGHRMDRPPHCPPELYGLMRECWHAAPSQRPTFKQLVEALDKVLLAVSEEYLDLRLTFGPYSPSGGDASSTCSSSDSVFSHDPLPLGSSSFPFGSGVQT

IC50 (FGFR4) [nM] | EC50 (Hep 3B hepatoma cells; Homo sapiens, Hep3B, 96 h) [nM] | EC50 (HuH-7 hepatoma cells; Homo sapiens, Huh-7, 96 h) [nM] | EC50 (Hep 3B hepatoma cells; 96 hours) [nM] | EC50 (HuH-7 hepatoma cells; 96 hours) [nM] | SMILES
0.8 | 6 | 31.6 |  |  | CO[C@@H]1CCC[C@H]1Nc1cc(NC(=O)N2c3nc(C=O)ccc3C3(F)CC2C3)ncc1C#N (relative stereo) [Compound 19, N-(5-cyano-4-(((trans)-2-methoxycyclopentyl)amino)pyridin-2-yl)-4-fluoro-7-formyl-3,4-dihydro-2,4-methylene-1,8-naphthyridine-1(2H)-carboxamide]
0.6 | 1.2 | 24 |  |  | N#Cc1cnc(NC(=O)N2c3nc(C=O)ccc3C3(F)CC2C3)cc1N[C@@H]1CCC[C@H]1O (relative stereo) [Compound 20, N-(5-cyano-4-(((trans)-2-hydroxycyclopentyl)amino)pyridin-2-yl)-4-fluoro-7-formyl-3,4-dihydro-2,4-methylene-1,8-naphthyridine-1(2H)-carboxamide]
0.3 | 1.3 | 1 |  |  | CO[C@@H]1CCC[C@H]1Nc1cc(NC(=O)N2c3nc(C=O)c(CN4CCN(C)CC4=O)cc3C3CC2C3)ncc1C#N (relative stereo) [Compound 26, N-(5-cyano-4-(((trans)-2-methoxycyclopentyl)amino)pyridin-2-yl)-7-formyl-6-((4-methyl-2-oxopiperazin-1-yl)methyl)-3,4-dihydro-2,4-methylene-1,8-naphthyridine-1(2H)-carboxamide]
0.3 | 0.3 | 0.08 |  |  | CO[C@@H]1CCC[C@H]1Nc1cc(NC(=O)N2c3nc(C=O)ccc3C3(NC(=O)CN(C)C)CC2C3)ncc1C#N (relative stereo) [Compound 33, N-(5-cyano-4-(((trans)-2-methoxycyclopentyl)amino)pyridin-2-yl)-4-(2-(dimethylamino)acetamido)-7-formyl-3,4-dihydro-2,4-methylene-1,8-naphthyridine-1(2H)-carboxamide]
9.8 |  |  | 32.1 | 73.1 | COC1CCCC1Nc1cc(NC(=O)N2c3nc(C=O)c(CN4CCN(C)CC4=O)cc3C3(F)CC2C3)ncc1C#N (single isomer, unassigned) [Compound 11-P2, N-(5-cyano-4-(((trans)-2-methoxycyclopentyl)amino)pyridin-2-yl)-4-fluoro-7-formyl-64(4-methyl-2-oxopiperazin-1-yl)methyl)-3,4-dihydro-2,4-methylene-1,8-naphthyridine-1(2H)-carboxamide]
2.1 |  |  | 8.6 | 0.9 | COC1CCCC1Nc1cc(NC(=O)N2c3nc(C=O)c(CN4CCN(C)CC4=O)cc3C3(F)CC2C3)ncc1C#N (single isomer, unassigned) [Compound 12-P1, N-(5-cyano-4-(((cis)-2-methoxycyclopentyl)amino)pyridin-2-yl)-4-fluoro-7-formyl-64(4-methyl-2-oxopiperazin-1-yl)methyl)-3,4-dihydro-2,4-methylene-1,8-naphthyridine-1(2H)-carboxamide]
10.9 |  |  | 39 | 95.2 | COC1CCCC1Nc1cc(NC(=O)N2c3nc(C=O)c(CN4CCN(C)CC4=O)cc3C3(F)CC2C3)ncc1C#N (single isomer, unassigned) [Compound 12-P2, N-(5-cyano-4-(((cis)-2-methoxycyclopentyl)amino)pyridin-2-yl)-4-fluoro-7-formyl-64(4-methyl-2-oxopiperazin-1-yl)methyl)-3,4-dihydro-2,4-methylene-1,8-naphthyridine-1(2H)-carboxamide]
6.9 | 12.6 | 74 |  |  | COCCNc1cc(NC(=O)N2c3nc(C=O)c(CN4CCOCC4=O)cc3C3(F)CC2C3)ncc1C#N [Compound 13]
0.7 |  | 0.6 |  |  | CN1CCN(Cc2cc3c(nc2C=O)N(C(=O)Nc2cc(NC4CCCC4O)c(C#N)cn2)C2CC3(F)C2)C(=O)C1 (stereo not drawn) [Compound 17, N-(5-cyano-4-(((trans)-2-hydroxycyclopentyl)amino)pyridin-2-yl)-4-fluoro-7-formyl-6-((4-methyl-2-oxopiperazin-1-yl)methyl)-3,4-dihydro-2,4-methylene-1,8-naphthyridine-1(21-1)-carboxamide]
1.4 |  | 0.8 |  |  | COCCNc1cc(NC(=O)N2c3nc(C=O)ccc3C3(NC(=O)CN(C)C)CC2C3)ncc1C#N [Compound 30, N-(5-cyano-4-((2-methoxyethyl)amino)pyridin-2-yl)-4-(2-(dimethylamino)acetamido)-7-formyl-3,4-dihydro-2,4-methylene-1,8-naphthyridine-1(2H)-carboxamide]
 | 15 | 52 |  |  | COCCNc1cc(NC(=O)N2CCCc3cc(CN4CCN(C)CC4=O)c(C=O)nc32)ncc1C#N [Positive Control Compound, N-(5-cyano-4-((2-methoxyethyl)amino)pyridin-2-yl)-7-formyl-6-((4-methyl-2-oxopiperazin-1-yl)methyl)-3,4-dihydro-1,8-naphthyridine-1(2H)-carboxamide, reference compound]

The remaining lines, values behind:

SMILES | IC50 (FGFR4) [nM] | EC50 (Hep 3B hepatoma cells; Homo sapiens, Hep3B, 96 h) [nM] | EC50 (HuH-7 hepatoma cells; Homo sapiens, Huh-7, 96 h) [nM] | EC50 (Hep 3B hepatoma cells; 96 hours) [nM] | EC50 (HuH-7 hepatoma cells; 96 hours) [nM]
COC1CCCC1Nc1cc(NC(=O)N2c3nc(C=O)c(CN4CCN(C)CC4=O)cc3C3(F)CC2C3)ncc1C#N (single isomer, unassigned) [Compound 11-P1, N-(5-cyano-4-(((trans)-2-methoxycyclopentyl)amino)pyridin-2-yl)-4-fluoro-7-formyl-64(4-methyl-2-oxopiperazin-1-yl)methyl)-3,4-dihydro-2,4-methylene-1,8-naphthyridine-1(2H)-carboxamide] | 1.3 |  |  | 5.6 | 0.2
COCCNc1cc(NC(=O)N2c3nc(C=O)ccc3C3(F)CC2C3)ncc1C#N [Compound 1, N-(5-cyano-4-((2-methoxyethyl)amino)pyridin-2-yl)-4-fluoro-7-formyl-3,4-dihydro-2,4-methylene-1,8-naphthyridine-1(2H)-carboxamide] | 0.4 | 15.1 | 62 |  | 
COCCNc1cc(NC(=O)N2c3nc(C=O)ccc3C3(O)CC2C3)ncc1C#N [Compound 2, N-(5-cyano-4-((2-methoxyethyl)amino)pyridin-2-yl)-7-formyl-4-hydroxy-3,4-dihydro-2,4-methylene-1,8-naphthyridine-1(2H)-carboxamide] | 2.2 | 8.1 | 52 |  | 
COCCNc1cc(NC(=O)N2c3nc(C=O)ccc3C3(OC)CC2C3)ncc1C#N [Compound 3] | 1.6 | 13.4 | 42 |  | 
COCCNc1cc(NC(=O)N2c3nc(C=O)c(CN4CCN(C)CC4=O)cc3C3(O)CC2C3)ncc1C#N [Compound 5, N-(5-cyano-4-((2-methoxyethyl)amino)pyridin-2-yl)-7-formyl-4-hydroxy-6-((4-methyl-2-oxopiperazin-1-yl)methyl)-3,4-dihydro-2,4-methylene-1,8-naphthyridine-1(2H)-carboxamide] | 1.8 | 27 | 49 |  | 
COC[C@@H](C)Nc1cc(NC(=O)N2c3nc(C=O)c(CN4CCN(C)CC4=O)cc3C3(F)CC2C3)ncc1C#N [Compound 6, (R)—N-(5-cyano-4-((1-methoxyprop-2-yl)amino)pyridin-2-yl)-4-fluoro-7-formyl-6-((4-methyl-2-oxopiperazin-1-yl)methyl)-3,4-dihydro-2,4-methylene-1,8-naphthyridine-1(2H)-carboxamide] | 2.1 | 3.3 | 5.9 |  | 
COCCNc1cc(NC(=O)N2c3nc(C=O)c(CN4CCN(C)CC4)cc3C3(F)CC2C3)ncc1C#N [Compound 7] | 5.1 | 669 | > 1000 |  | 
COCCNc1cc(NC(=O)N2c3nc(C=O)c(CN(C)C(=O)CN(C)C)cc3C3(F)CC2C3)ncc1C#N [Compound 8] | 2.6 | 11.8 | 28 |  | 
COCCOc1cc(NC(=O)N2c3nc(C=O)c(CN4CCN(C)CC4=O)cc3C3(F)CC2C3)ncc1C#N [Compound 9] | 4.9 | 58 | 71 |  | 
CN1CCN(Cc2cc3c(nc2C=O)N(C(=O)Nc2cc(NC4CCOC4)c(C#N)cn2)C2CC3(F)C2)C(=O)C1 (stereo not drawn) [Compound 10, N-(5-cyano-4-((tetrahydrofuran-3-yl)amino)pyridin-2-yl)-4-fluoro-7-formyl-6-((4-methyl-2-oxopiperazin-1-yl)methyl)-3,4-dihydro-2,4-methylene-1,8-naphthyridine-1(2H)-carboxamide] | 3.8 | 10 | 20 |  | 

Source: patent US12344611B2, “Bridged cycloformylpyridine derivatives and uses thereof” (BroadenBio Co., Ltd., priority 2019, dated 2025)
